# Test results published in patent publication US20060069132A1, “Azolecarboxamide herbicides” (priority 2004, published 2006).
# Assays:
# giant foxtail = assay: Test B pre-/postemergence herbicide test; type: in vivo, Setaria faberi
# Summary of the method: (§1)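 Greenhouse pot assay with simultaneous preemergence (treated seed) and postemergence (2–18 cm seedlings) applications of surfactant-containing, non-phytotoxic solvent formulations. Response scored visually 13–15 days later on a 0–100 scale, 100 meaning complete control.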
# wild oat = assay: Test B postemergence herbicide test; type: in vivo, Avena fatua; details: for Plant response rating, Oat, Wild: visual rating after 13 to 15 days
# Summary of the method: (§2)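 Postemergence plants were sprayed with formulated test chemicals at 2 to 18 cm height (1- to 4-leaf stage); paddy species were grown to the 2-leaf stage. After 13 to 15 days in a greenhouse, injury was rated visually against untreated controls on a 0–100 scale (0 = no effect, 100 = complete control).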
# pigweed = assay: Test B pre-/postemergence herbicide test; type: in vivo, Amaranthus retroflexus
# Summary of the method: as §1
# velvetleaf = assay: Test B pre-/postemergence herbicide test; type: in vivo, Abutilon theophrasti
# Summary of the method: as §1
# morningglory = assay: Test B pre-/postemergence herbicide test; type: in vivo, Ipomoea coccinea
# Summary of the method: (§3)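 Pre: seeds sown, then sprayed. Post: 1–4-leaf plants (2–18 cm) sprayed at the same time. Paddy: flooded, treated at 2-leaf stage. Formulation: non-phytotoxic solvent with surfactant. Greenhouse 13–15 days; visual 0–100 score relative to controls.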
# Surinam grass = assay: Test B pre-/postemergence herbicide test; type: in vivo, Urochloa decumbens
# Summary of the method: as §1
# large crabgrass = assay: Test B pre-/postemergence herbicide test; type: in vivo, Digitaria sanguinalis
# Summary of the method: as §1
# barnyardgrass [1] = assay: Test B flooded paddy test; type: in vivo, Echinochloa crus-galli; details: 1000 g ai/ha, scale 0 to 100 (0 no effect, 100 complete control)
# Summary of the method: (§4)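 Read-out: visual comparison with controls, scored 0 to 100, where 100 means complete control and 0 no effect. Formulated chemicals were applied postemergence to plants 2–18 cm tall (1- to 4-leaf), or to flooded-paddy plants at the 2-leaf stage, then held 13 to 15 days under glass.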
# [2] = system: small flower umbrella sedge; assay: Test B flooded paddy test; type: in vivo, Cyperus difformis; details: 1000 g ai/ha, scale 0 to 100 (0 no effect, 100 complete control)
# Summary of the method: as §4
# corn = assay: Test B pre-/postemergence herbicide test; type: in vivo, Zea mays
# Summary of the method: as §1
# wheat = assay: Test B postemergence herbicide test; type: in vivo, Triticum aestivum; design: key to Wheat plant response rating: 0 = no effect, 100 = complete control; details: for Plant response rating, Wheat: Postemergence, visual rating after 13 to 15 days; for Wheat plant response rating: postemergence
# Summary of the method: as §2
# lambsquarters = assay: Test B pre-/postemergence herbicide test; type: in vivo, Chenopodium album
# Summary of the method: as §1
# barnyardgrass [3] = assay: Test B pre-/postemergence herbicide test; type: in vivo, Echinochloa crus-galli
# Summary of the method: as §3
# cocklebur = assay: Test B pre-/postemergence herbicide test; type: in vivo, Xanthium strumarium
# Summary of the method: as §3
# rice = assay: Test B flooded paddy test; type: in vivo, Oryza sativa; details: 1000 g ai/ha, scale 0 to 100 (0 no effect, 100 complete control)
# Summary of the method: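 Greenhouse test; postemergence application to plants at 1–4 leaves (2–18 cm); paddy species at 2 leaves; evaluated visually vs controls at 13–15 days; scale 0–100 (100 = complete control).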
# [4] = Postemergence, 125 g ai/ha, scale 0 (no effect) to 100 (complete control)
# [5] = Postemergence, 500 g ai/ha, visual rating after 13 to 15 days, scale 0 (no effect) to 100 (complete control)
# [6] = Preemergence, 500 g ai/ha, scale 0 to 100
# [7] = preemergence, 125 g ai/ha, 0 to 100 scale, 0 is no effect, 100 is complete control
# [8] = Postemergence, 500 g ai/ha, scale 0 (no effect) to 100 (complete control)
# [9] = 500 g ai/ha, scale 0 (no effect) to 100 (complete control)
# [10] = 125 g ai/ha, 0 is no effect, 100 is complete control, preemergence
# [11] = 125 g ai/ha, visual rating, scale 0 (no effect) to 100 (complete control), postemergence
# [12] = 500 g ai/ha, visual rating, 0 = no effect, 100 = complete control, preemergence
# [13] = postemergence, 500 g ai/ha, scale 0 to 100, 0 is no effect, 100 is complete control
structure (smiles),measurement,setting,value
C#CCNC(=O)c1cccc(NC(=O)c2cc(C(C)(C)C)nn2CC)c1 [Compound 47],"Foxtail, Giant plant response rating",giant foxtail; [4],30
same,"Plant response rating, Foxtail, Giant",giant foxtail; [5],30
same,"Foxtail, Giant plant response rating",giant foxtail; [6],90
same,"Plant response rating, Foxtail, Giant",giant foxtail; [7],40
same,"Oat, Wild plant response rating",wild oat; [4],10
same,"Plant response rating, Oat, Wild",wild oat; [8],30
same,"Plant response rating, Pigweed",pigweed; [5],100
same,Pigweed plant response rating,pigweed; [6],100
same,"Plant response rating, Pigweed",pigweed; [7],100
same,"Plant response rating, Velvetleaf",velvetleaf; [5],70
same,Velvetleaf plant response rating,velvetleaf; [6],100
same,"Plant response rating, Velvetleaf",velvetleaf; [7],30
same,Morningglory plant response rating,morningglory; [4],30
same,"Plant response rating, Morningglory",morningglory; [5],100
same,Morningglory plant response rating,morningglory; [6],30
same,"Plant response rating, Morningglory",morningglory; [7],20
same,"Plant response rating, Surinam Grass",Surinam grass; [5],40
same,Surinam Grass plant response rating,Surinam grass; [6],70
same,"Plant response rating, Surinam Grass",Surinam grass; [7],20
same,"Crabgrass, Large plant response rating",large crabgrass; [4],10
same,"Plant response rating, Crabgrass, Large",large crabgrass; [5],70
same,"Crabgrass, Large plant response rating",large crabgrass; [6],100
same,Barnyardgrass plant response rating,"barnyardgrass [1]; visual rating, 13 to 15 days",90
same,"Sedge, Umbrella plant response rating","[2]; visual rating, 13 to 15 days",80
same,Corn plant response rating,corn; [4],10
same,"Plant response rating, Corn",corn; [5],30
same,Corn plant response rating,corn; [6],10
same,"Plant response rating, Wheat",wheat; [9],30
same,Lambsquarters plant response rating,lambsquarters; [4],80
same,"Plant response rating, Lambsquarters",lambsquarters; [5],90
same,Lambsquarters plant response rating,lambsquarters; [6],100
same,"Plant response rating, Lambsquarters",lambsquarters; [7],100
same,Barnyardgrass plant response rating,barnyardgrass [3]; [4],20
same,"Plant response rating, Barnyardgrass",barnyardgrass [3]; [5],40
same,Barnyardgrass plant response rating,barnyardgrass [3]; [6],90
same,Cocklebur plant response rating,cocklebur; [4],10
same,"Plant response rating, Cocklebur",cocklebur; [5],100
same,Cocklebur plant response rating,cocklebur; [6],40
same,Rice plant response rating,"rice; visual rating, 13 to 15 days",70
CCn1nc(C(C)(C)C)cc1C(=O)Nc1cc(C(=S)N(C)C)ccn1 [Compound 334],"Plant response rating (0 to 100 scale), Foxtail, Giant",giant foxtail; [10],90
same,"Foxtail, Giant plant response rating",giant foxtail; [11],10
same,"Plant response rating, Foxtail, Giant",giant foxtail; [12],100
same,"Foxtail, Giant plant response rating",giant foxtail; [13],60
same,"Oat, Wild plant response rating",wild oat; [11],20
same,"Oat, Wild plant response rating",wild oat; [13],30
same,"Plant response rating (0 to 100 scale), Pigweed",pigweed; [10],60
same,Pigweed plant response rating,pigweed; [11],40
same,"Plant response rating, Pigweed",pigweed; [12],100
same,Pigweed plant response rating,pigweed; [13],70
same,"Plant response rating (0 to 100 scale), Velvetleaf",velvetleaf; [10],100
same,Velvetleaf plant response rating,velvetleaf; [11],50
same,Velvetleaf plant response rating,velvetleaf; [13],60
same,"Plant response rating (0 to 100 scale), Morningglory",morningglory; [10],0
same,Morningglory plant response rating,morningglory; [11],50
same,"Plant response rating, Morningglory",morningglory; [12],70
same,Morningglory plant response rating,morningglory; [13],80
same,"Plant response rating (0 to 100 scale), Surinam Grass",Surinam grass; [10],80
same,Surinam Grass plant response rating,Surinam grass; [11],20
same,"Plant response rating, Surinam Grass",Surinam grass; [12],100
same,Surinam Grass plant response rating,Surinam grass; [13],50
same,"Plant response rating (0 to 100 scale), Crabgrass, Large",large crabgrass; [10],90
same,"Crabgrass, Large plant response rating",large crabgrass; [11],10
same,"Plant response rating, Crabgrass, Large",large crabgrass; [12],100
same,"Crabgrass, Large plant response rating",large crabgrass; [13],50
same,Barnyardgrass plant response rating,barnyardgrass [1],90
same,"Sedge, Umbrella plant response rating",[2],80
same,"Plant response rating (0 to 100 scale), Corn",corn; [10],20
same,Corn plant response rating,corn; [11],0
same,"Plant response rating, Corn",corn; [12],70
same,Corn plant response rating,corn; [13],20
same,Wheat plant response rating,"wheat; 125 g ai/ha, visual rating, scale 0 (no effect) to 100 (complete control)",10
same,Wheat plant response rating,"wheat; 500 g ai/ha, scale 0 to 100, 0 is no effect, 100 is complete control",20
same,"Plant response rating (0 to 100 scale), Lambsquarters",lambsquarters; [10],100
same,Lambsquarters plant response rating,lambsquarters; [11],70
same,"Plant response rating, Lambsquarters",lambsquarters; [12],100
same,Lambsquarters plant response rating,lambsquarters; [13],90
same,"Plant response rating (0 to 100 scale), Barnyardgrass",barnyardgrass [3]; [10],90
same,Barnyardgrass plant response rating,barnyardgrass [3]; [11],0
same,"Plant response rating, Barnyardgrass",barnyardgrass [3]; [12],100
same,Barnyardgrass plant response rating,barnyardgrass [3]; [13],60
same,"Plant response rating (0 to 100 scale), Cocklebur",cocklebur; [10],60
same,Cocklebur plant response rating,cocklebur; [11],20
same,"Plant response rating, Cocklebur",cocklebur; [12],100
same,Cocklebur plant response rating,cocklebur; [13],70
same,Rice plant response rating,rice,80
CCN(C)C(=O)c1cccc(NC(=O)c2cc(C(C)(C)C)nn2CC)c1 [Compound 48],"Foxtail, Giant plant response rating",giant foxtail; [4],20
same,"Plant response rating, Foxtail, Giant",giant foxtail; [5],30
same,"Foxtail, Giant plant response rating",giant foxtail; [6],90
same,"Plant response rating, Foxtail, Giant",giant foxtail; [7],70
same,"Oat, Wild plant response rating",wild oat; [4],10
same,"Plant response rating, Oat, Wild",wild oat; [8],30
same,"Plant response rating, Pigweed",pigweed; [5],70
same,Pigweed plant response rating,pigweed; [6],100
same,"Plant response rating, Pigweed",pigweed; [7],100
same,"Plant response rating, Velvetleaf",velvetleaf; [5],80
same,Velvetleaf plant response rating,velvetleaf; [6],100
same,"Plant response rating, Velvetleaf",velvetleaf; [7],90
same,Morningglory plant response rating,morningglory; [4],0
same,"Plant response rating, Morningglory",morningglory; [5],50
same,Morningglory plant response rating,morningglory; [6],40
same,"Plant response rating, Morningglory",morningglory; [7],10
same,"Plant response rating, Surinam Grass",Surinam grass; [5],50
same,Surinam Grass plant response rating,Surinam grass; [6],80
same,"Plant response rating, Surinam Grass",Surinam grass; [7],10
same,"Crabgrass, Large plant response rating",large crabgrass; [4],10
same,"Plant response rating, Crabgrass, Large",large crabgrass; [5],20
same,"Crabgrass, Large plant response rating",large crabgrass; [6],80
same,Barnyardgrass plant response rating,"barnyardgrass [1]; visual rating, 13 to 15 days",80
same,"Sedge, Umbrella plant response rating","[2]; visual rating, 13 to 15 days",80
same,Corn plant response rating,corn; [4],0
same,"Plant response rating, Corn",corn; [5],30
same,Corn plant response rating,corn; [6],0
same,"Plant response rating, Wheat",wheat; [9],20
same,Lambsquarters plant response rating,lambsquarters; [4],60
same,"Plant response rating, Lambsquarters",lambsquarters; [5],90
same,Lambsquarters plant response rating,lambsquarters; [6],90
same,"Plant response rating, Lambsquarters",lambsquarters; [7],90
same,Barnyardgrass plant response rating,barnyardgrass [3]; [4],40
same,"Plant response rating, Barnyardgrass",barnyardgrass [3]; [5],60
same,Barnyardgrass plant response rating,barnyardgrass [3]; [6],90
same,Cocklebur plant response rating,cocklebur; [4],0
same,"Plant response rating, Cocklebur",cocklebur; [5],70
same,Cocklebur plant response rating,cocklebur; [6],50
same,Rice plant response rating,"rice; visual rating, 13 to 15 days",80
